Laboratory results taken from patent US9717715B2, “Method of combination therapy using an anti-C-Met antibody” (Samsung Electronics Co., Ltd., priority 2013, dated 2017).

Experiments:
[1] = tested on: human gastric cancer MKN45 cells; test: MKN45 orthotopic xenograft (metastasis); format: in vivo, mouse; details: 5-FU group, dose not given
Excerpt: For the MKN45 orthotopic xenograft experiment, human gastric cancer MKN45 cells (Japanese Cancer Research Bank, JCRB, Tokyo, Japan) were inoculated into donor BALB/C nude mice. When the tumor size reached the size of 600-800 mm3, the donor mice were euthanized, and the tumor was excised through sterile surgical procedure. The tumors were cut into fragments the size of 1×1×1 mm and implanted into the wall of great gastric curvature of recipient mice through sterile surgery under isoflurane anesthesia. 7 days after the surgery, recipient mice with orthotopic tumors were randomized into groups according to body weight and dosing was commenced. huAbF46-H4-A1 (IgG2 Fc) was injected into a vein once a week for 9 weeks. At the end of the in vivo study, orthotopic tumor weight was recorded and metastasis to the other organ was checked by macroscopic examination.

[2] = tested on: breast cancer cell line HCC1954; test: Combination cell viability CTG assay, HCC1954; format: cell-based; details: HCC1954, 72 hours, FIG. 18
Method: (§1) Cell proliferation in response to antibody treatment in vitro was assessed by a CTG (Promega) assay according to manufacturer's instructions. EBC1, HT-29, BT-474, HCC1806, HCC1954 and MKN45 cells were respectively plated at a density of 5×10^3 cells per well in FBS 10% (v/v) RPMI 1640 medium (Gibco) onto a 96-well plate (BD). The HT-29 (HTB-38), BT-474 (HTB-20), HCC1806 (CRL-2335) and HCC1954 (CRL-2338) cell lines were all purchased from ATCC. MKN45 (JCRB0254) and EBC1 (JCRB0820) cell lines were purchased from the Health Science Research Resource Bank. After 24 hours incubation, the c-Met targeting antibody huAbF46-H4-A1 (IgG2 Fc) was added alone or in combination with another drug (lapatinib, regorafenib or vemurafenib) diluted in 10% FBS (v/v) RPMI medium. Lapatinib, regorafenib and vemurafenib were purchased from Selleck Chemicals.
(§2) After 72 hours incubation, 100 μL of the CTG reagent (Promega) was added to each well followed by incubation at 37° C. for 30 minutes. The luminescence was measured using an Envision Multilabel Plate Reader (Perkin Elmer).

[3] = tested on: breast cancer cell line HCC1806; test: Combination cell viability CTG assay, HCC1806; format: cell-based; details: HCC1806, 72 hours, FIG. 17
Method: as §1, §2

[4] = tested on: breast cancer cell line BT-474; test: Combination cell viability CTG assay, BT-474; format: cell-based; details: BT-474, 72 hours
Method: as §1
For the combination treatment of each experiment, IC20 concentration of one drug (drug A) and differing amounts of the other drug (drug B) were treated to see if the efficacy of drug B is improved by combi-treatment with drug A in a dose-dependent manner (see FIGS. 16-22). After 72 hours incubation, 100 μL of the CTG reagent (Promega) was added to each well followed by incubation at 37° C. for 30 minutes. The luminescence was measured using an Envision Multilabel Plate Reader (Perkin Elmer).

[5] = tested on: colorectal cancer cell line HT29; test: Combination cell viability CTG assay, HT29; format: cell-based; details: HT29, 72 hours, FIG. 19
Method: as §1, §2

[6] = tested on: MHCC97H (human liver cancer cell line); test: MHCC97H xenograft model; format: in vivo, mouse; details: 30 mg/kg p.o. q.d. x 4 weeks
Method: The antitumor activity of huAbF46-H4-A1 (IgG2 Fc) was evaluated in a BALB/C nude mouse MHCC97H (human liver cancer cell line) xenograft model (referring to Example 16.2). Approximately 3 million MHCC97H cells in 100 μL of serum-free media were injected via s.c. to each of the 140 mice under anesthesia by 1-2% isoflurane. Ten days after subcutaneous inoculation with MHCC97H tumor cells, dosing commenced in the following treatment groups: 0 (PBS vehicle), 0.2, 1, 5 or 10 mg/kg huAbF46-H4-A1 (IgG2 Fc) i.v., q.w.×4 weeks; 30 mg/kg sorafenib p.o., q.d.×4 weeks (positive control). Each group consisted of 15 mice. Tumor volumes and body weights were measured two to three times a week for total study period about 4 weeks. The tumor volume (V) was calculated as follows: V (mm^3)={long axis length (mm)×(short axis length (mm))^2}/2.

Compound: O=c1[nH]cc(F)c(=O)[nH]1 [Antibody 5-FU, 5-FU, reference compound]
- Number of metastasis lesion [1]: 0

Compound: CS(=O)(=O)CCNCc1ccc(-c2ccc3ncnc(Nc4ccc(OCc5cccc(F)c5)c(Cl)c4)c3c2)o1 [lapatinib]
- anti-tumor efficacy (cell viability) when co-treated with huAbF46-H4-A1 (IgG2 Fc) [2]: significantly improved
- anti-tumor efficacy (cell viability) when co-treated with huAbF46-H4-A1 (IgG2 Fc) [3]: significantly improved
- anti-tumor efficacy (cell viability) when co-treated with huAbF46-H4-A1 (IgG2 Fc) ([4]; FIG. 16): significantly improved
- anti-tumor efficacy (cell viability) when co-treated with huAbF46-H4-A1 (IgG2 Fc) [5]: significantly improved

Compound: CNC(=O)c1cc(Oc2ccc(NC(=O)Nc3ccc(Cl)c(C(F)(F)F)c3)c(F)c2)ccn1 [regorafenib]
- anti-tumor efficacy (cell viability) when co-treated with huAbF46-H4-A1 (IgG2 Fc) ([4]; FIG. 20): significantly improved

Compound: CNC(=O)c1cc(Oc2ccc(NC(=O)Nc3ccc(Cl)c(C(F)(F)F)c3)cc2)ccn1 [sorafenib, reference compound]
- tumor growth [6]: significant inhibition of MHCC97H tumor growth
